The results in this text go back to PubChem BioAssay (NCI).

Broadly, the TGI is the concentration at which net growth stops. What is called GI50 is the concentration at which growth is held to half of that of the control.

Where “and” joins values, the source holds several entries; their conditions need not be identical. Equal entries are not always repeated.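 96-well plates; 48 h exposure; 5 concentrations. Endpoints by linear interpolation between flanking doses. Not reached: highest tested concentration assigned. The concentration for 50% growth inhibition is given as GI50. The concentration for full growth arrest is given as TGI.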

Among the test systems are NCI-H226 lung; U251 CNS; SK-MEL-28 melanoma; M14 melanoma; LXFL 529 NSCLC; KM20L2 colon; 786-0 renal; SNB-19 CNS; SF-268 CNS; HOP-62 NSCLC.
Holding throughout (experiment): DTP human tumour cell line panel, 48 h

Turning to `CC(=O)c1cccc(N2COC(C)(C)c3nc4ccccc4n3C2)c1`, the TGI in the assay with NCI-H226 lung, in the assay on U251 CNS, in the assay with SK-MEL-28 melanoma, with M14 melanoma, in the assay with LXFL 529 NSCLC and in the assay on KM20L2 colon was > 100 µM each time. Also, the TGI in the assay on 786-0 renal, with SNB-19 CNS, in the assay with SF-268 CNS and in the assay on HOP-62 NSCLC was > 100 µM in each case.

Take `O=C(Nc1cc(Cl)c(Cl)cc1Cl)C(=O)C1C=CCS1(=O)=O` (centres undefined): the TGI with NCI-H226 lung, with U251 CNS, in the assay on SK-MEL-28 melanoma, in the assay on M14 melanoma, in the assay with LXFL 529 NSCLC and in the assay on KM20L2 colon was > 100 µM in each case. For the same molecule, the TGI in the assay with 786-0 renal, in the assay with SNB-19 CNS, in the assay on SF-268 CNS and in the assay on HOP-62 NSCLC was > 100 µM each time.

With `COc1ccccc1N1C(=O)/C(=C/c2ccc(N(CCC#N)CCC#N)cc2C)N=C1c1cc([N+](=O)[O-])ccc1Cl`, the TGI with NCI-H226 lung, in the assay with U251 CNS, with SK-MEL-28 melanoma, in the assay on M14 melanoma, with LXFL 529 NSCLC and with KM20L2 colon was > 100 µM each time. Further, the TGI with 786-0 renal, in the assay with SNB-19 CNS, with SF-268 CNS and in the assay on HOP-62 NSCLC was > 100 µM in each case.

Turning to `CCN(CC)CC(O)CNc1ccc(NCC2CO2)c2c1C(=O)c1ccccc1C2=O` (centres undefined), the GI50 in the assay on NCI-H226 lung is 0.958 µM; in the assay with U251 CNS, 0.373 µM; with SK-MEL-28 melanoma, 0.631 µM; in the assay with 786-0 renal it was 0.374 µM; in the assay with HOP-62 NSCLC, 0.297 µM. The TGI with NCI-H226 lung was 3.21 µM; with U251 CNS, 19.6 µM; in the assay on SK-MEL-28 melanoma, 3.5 µM; in the assay with M14 melanoma, 0.402 µM and 0.674 µM; with LXFL 529 NSCLC it was 0.247 µM; with KM20L2 colon it was 8.63 µM. The TGI with 786-0 renal is 1.15 µM; with SNB-19 CNS it was 7.52 µM; in the assay on SF-268 CNS, 0.683 µM; with HOP-62 NSCLC, 4.02 µM.

With `COc1ccc([N+]2=NC(c3ccc([N+](=O)[O-])cc3)=NN(c3ccccc3)C2)cc1`, the TGI with NCI-H226 lung, in the assay with U251 CNS, in the assay with SK-MEL-28 melanoma, in the assay on LXFL 529 NSCLC, with KM20L2 colon and with 786-0 renal was > 100 µM in each case. The TGI in the assay with SNB-19 CNS, in the assay on SF-268 CNS and in the assay with HOP-62 NSCLC was > 100 µM throughout.

In the case of `CCOC(=O)Nc1nc2ccc(Cn3cccc3)cc2[nH]1`, the TGI is 32.1 µM in the assay on NCI-H226 lung; > 64.8 µM in the assay with U251 CNS; > 100 µM with SK-MEL-28 melanoma; > 100 µM with M14 melanoma; > 100 µM with LXFL 529 NSCLC; 12.9 µM with KM20L2 colon. For the same molecule, the TGI was > 100 µM with 786-0 renal, > 100 µM with SNB-19 CNS, > 100 µM in the assay on SF-268 CNS and > 67.1 µM with HOP-62 NSCLC.

With `C=CC1(C(=O)O)CCC(C(C)(C)C)CC1` (centres undefined), the TGI with NCI-H226 lung, in the assay on U251 CNS, in the assay on M14 melanoma, in the assay on LXFL 529 NSCLC, with KM20L2 colon and with 786-0 renal was > 100 µM each time. In addition, the TGI in the assay with SNB-19 CNS, with SF-268 CNS and in the assay on HOP-62 NSCLC was > 100 µM each time.

`Cc1c(NC(=O)C(C)(C)Br)c(=O)oc2c(C)c3occc(=O)c3cc12`: the TGI with NCI-H226 lung is 71.9 µM; with U251 CNS it was > 100 µM; in the assay on SK-MEL-28 melanoma it was > 100 µM; in the assay with M14 melanoma, > 100 µM; in the assay on LXFL 529 NSCLC, > 100 µM; in the assay with KM20L2 colon it was > 100 µM. In addition, the TGI in the assay on 786-0 renal, in the assay with SNB-19 CNS, in the assay with SF-268 CNS and in the assay on HOP-62 NSCLC was > 100 µM throughout.

In the case of `Cc1cc(Cl)ccc1NC(=O)CCCC(=O)C1CCCC1=O` (centres undefined), the TGI with NCI-H226 lung, in the assay with U251 CNS, with M14 melanoma, in the assay on LXFL 529 NSCLC, in the assay on KM20L2 colon and with 786-0 renal was > 100 µM each time. In addition, the TGI with SNB-19 CNS and in the assay with SF-268 CNS was > 100 µM throughout.

Turning to `Cc1[nH]c2ccccc2c1C1Cc2ccccc2N1C(=O)/C=C\C(=O)O` (centres undefined), the TGI in the assay with NCI-H226 lung is > 100 µM; with U251 CNS, 70.7 µM; with M14 melanoma, > 100 µM; in the assay with LXFL 529 NSCLC, 41.1 µM; with KM20L2 colon, > 100 µM; in the assay on 786-0 renal, > 100 µM. Besides, the TGI in the assay on SNB-19 CNS was 68.6 µM; in the assay on SF-268 CNS, 68.4 µM; in the assay on HOP-62 NSCLC it was > 100 µM.

Regarding `COC(=O)C1C(C(=O)OC)C2(OC)c3ccccc3-c3ccccc3C12` (centres undefined), the TGI is > 100 µM in the assay on NCI-H226 lung; > 100 µM in the assay with U251 CNS; > 100 µM in the assay on SK-MEL-28 melanoma; > 100 µM in the assay on M14 melanoma; > 100 µM in the assay with LXFL 529 NSCLC; 87.9 µM in the assay with KM20L2 colon. Further, the TGI with 786-0 renal, with SNB-19 CNS, in the assay with SF-268 CNS and in the assay with HOP-62 NSCLC was > 100 µM in each case.

On to `CCCCOC(=O)NC(=O)c1cn(CCCOC(=O)CCCCCCCCC(=O)OCCCn2cc(C(=O)NC(=O)OCCCC)c(=O)[nH]c2=O)c(=O)[nH]c1=O`, for which the TGI in the assay with NCI-H226 lung, in the assay with U251 CNS, with SK-MEL-28 melanoma, in the assay on M14 melanoma, with LXFL 529 NSCLC and in the assay on KM20L2 colon was > 100 µM in each case. Also, the TGI in the assay with 786-0 renal, with SNB-19 CNS, in the assay on SF-268 CNS and in the assay with HOP-62 NSCLC was > 100 µM in each case.

As to `COc1ccc(NC(=O)C(=O)C(C(=O)c2ccccc2)C2OC(=O)c3ccccc32)c([N+](=O)[O-])c1` (centres undefined), the TGI in the assay with NCI-H226 lung, in the assay with U251 CNS, in the assay with SK-MEL-28 melanoma, in the assay with M14 melanoma, in the assay on LXFL 529 NSCLC and in the assay on KM20L2 colon was > 100 µM each time. The TGI with 786-0 renal, with SNB-19 CNS, with SF-268 CNS and with HOP-62 NSCLC was > 100 µM in each case.

In the case of `CCCCCCCCC[C@@H]1CC(=O)OCC2OC(O[C@H](CCCCCCCCC)CC(=O)OCC3OC(O[C@H](CCCCCCCCC)CC(=O)OCC4OC(O1)C(O)C(O)C4O)C(O)C(O)C3O)C(O)C(O)C2O` (some centres undefined), the TGI in the assay on NCI-H226 lung came to 24.6 µM; in the assay on U251 CNS, 21.4 µM; in the assay on SK-MEL-28 melanoma, 18.6 µM; with M14 melanoma, 10.2 µM; in the assay with LXFL 529 NSCLC it was 18 µM; with KM20L2 colon it was 19.7 µM. The TGI in the assay with 786-0 renal is 16.2 µM; with SNB-19 CNS, 23.6 µM; in the assay with SF-268 CNS it was 7.74 µM; with HOP-62 NSCLC it was 26.1 µM.

As to `CCNC(=O)CCN(C(=O)O)S(=O)(=O)c1ccc(NC(=O)c2ccccc2)cc1`, the TGI in the assay on NCI-H226 lung, in the assay with U251 CNS, in the assay with SK-MEL-28 melanoma, in the assay on M14 melanoma, in the assay with LXFL 529 NSCLC and with KM20L2 colon was > 100 µM in each case. The TGI with 786-0 renal was 28.3 µM; with SNB-19 CNS, > 100 µM; in the assay with SF-268 CNS, > 100 µM; in the assay with HOP-62 NSCLC, > 100 µM.

Turning to `COc1ccc(-c2onc(-c3ccc([N+](=O)[O-])cc3)c2C2=NCCN2)cc1`, the TGI in the assay with NCI-H226 lung, in the assay on U251 CNS, in the assay with SK-MEL-28 melanoma, in the assay on M14 melanoma, in the assay with LXFL 529 NSCLC and in the assay with KM20L2 colon was > 100 µM each time. Also, the TGI with 786-0 renal is 43 µM; with SNB-19 CNS, > 100 µM; with SF-268 CNS it was > 100 µM; in the assay on HOP-62 NSCLC it was > 100 µM.

Regarding `O=[N+]([O-])c1cccc(/C=N\NS(=O)(=O)c2ccc(Cl)cc2)c1O`, the TGI in the assay on U251 CNS, with SK-MEL-28 melanoma, in the assay on M14 melanoma, with LXFL 529 NSCLC, in the assay with KM20L2 colon and in the assay with 786-0 renal was > 100 µM throughout. The TGI in the assay on SNB-19 CNS, in the assay with SF-268 CNS and with HOP-62 NSCLC was > 100 µM throughout.

For `CCCCc1c2c(nc3c1CCC/C3=C\c1ccccc1)C(=O)CCC2`, the TGI was 45.3 µM with NCI-H226 lung; 34 µM in the assay with U251 CNS; 41.8 µM in the assay with SK-MEL-28 melanoma; 41.9 µM with M14 melanoma; > 100 µM in the assay with LXFL 529 NSCLC; 41.7 µM in the assay with KM20L2 colon. Besides, the TGI with 786-0 renal worked out at 60.9 µM; with SNB-19 CNS, 44.2 µM; in the assay on SF-268 CNS, 44.3 µM; in the assay on HOP-62 NSCLC, 42 µM.

As for `O=C1OC(CC(=O)c2ccc(Cl)c(Cl)c2)C(Cl)=C1Cl` (centres undefined), the TGI with NCI-H226 lung, in the assay with U251 CNS, in the assay with SK-MEL-28 melanoma, in the assay with M14 melanoma, with LXFL 529 NSCLC and with KM20L2 colon was > 100 µM each time. Further, the TGI in the assay with 786-0 renal, with SNB-19 CNS, with SF-268 CNS and in the assay on HOP-62 NSCLC was > 100 µM each time.

Turning to `NNC(=O)/C(=C/c1ccc(Cl)c(Cl)c1)NC(=O)c1ccccc1`, the TGI with NCI-H226 lung, in the assay with U251 CNS, in the assay on SK-MEL-28 melanoma, in the assay on M14 melanoma, in the assay on LXFL 529 NSCLC and in the assay with KM20L2 colon was > 100 µM each time. The TGI with 786-0 renal, with SNB-19 CNS, in the assay on SF-268 CNS and in the assay with HOP-62 NSCLC was > 100 µM each time.
